From US20220387370A1, “METHODS OF REDUCING NEUROLOGICAL DAMAGE IN WILSON DISEASE PATIENTS” (priority 2019, published 2022)
“Also recorded” adds a separate entry of the source. Like-named read-outs stand apart in the source and are kept apart here.

Legend:
PBCEC monolayers [1] = test: Electron microscopy of tight junctions of PBCECs; assay type: cell-based, porcine; details: copper-treated PBCECs, electron micrographs
Protocol: Electron microscopy of PBCECS grown on Transwell® inserts was performed as previously described (Ye, D., K. A. Dawson, and I. Lynch, Analyst, 2015. 140(1): p. 83-97) with minor modifications. Briefly, after fixation with 2.5% glutaraldehyde, cell monolayers were post-fixed with 1% osmium tetroxide for 30 min and dehydrated by ethanol.

[2] = system: HepG2, EA.hy926, U87MG and SHSY5Y cells; test: Cellular copper content (ICP-OES), all cell lines; assay type: cell-based, human; details: 750 μM copper, 250 μM albumin, 750 μM chelator, 24 h; vs Cu-albumin alone
Excerpt: (§1) Afterwards, cells were trypsinized and counted.

EA.hy926 cells [3] = test: Cu-albumin cell toxicity, CellTiter-Glo, EA.hy926; assay type: cell-based, human; details: EA.hy926, 750 μM chelator
Protocol: (§2) SHSY5Y (human neuroblastoma), U87MG (human astrocytoma), EA.hy926 (human endothelium) and HepG2 (human hepatocellular carcinoma) cells were from ATCC (Wesel, Germany) and were cultured in Dulbecco's Modified Eagle Medium (DMEM) supplemented with 10% FCS (Biochrom, Berlin, Germany) and 1% antibiotic-antimycotic (Life Technologies, Carlsbad, USA). All cells were maintained at 37° C. in a humidified atmosphere with 5% CO2.

HepG2 cells [4] = test: Cellular copper content (ICP-OES), HepG2; assay type: cell-based, human; details: 750 μM copper, 250 μM albumin, 750 μM chelator, vs Cu-albumin alone
Excerpt: as §1

PBCEC monolayers [5] = test: TEER and capacitance of PBCEC monolayers (endothelial blood-brain barrier model); assay type: cell-based, porcine
Excerpt: (§3) For transepithelial resistance (TEER) experiments (Srinivasan, B., et al., J Lab Autom, 2015. 20(2): p. 107-26), cryopreserved primary porcine brain capillary endothelial cells (PBCECs) were thawed and seeded either on rat tail collagen-coated 96-well plates for cytotoxicity testing using the Neutral red assay (Repetto, G., A. del Peso, and J. L. Zurita, Nat Protoc, 2008. 3(7): p. 1125-31) or Transwell® inserts (area: 1.12 cm^2, pore size: 0.4 μm: Corning, N.Y., USA) for barrier integrity studies. Cells were cultured for 48 hours in Earle's Medium 199 supplemented with 10% FCS, 50 U penicillin/mL, 50 μg/mL streptomycin, 100 μg/mL gentamycin and 0.7 mM I-glutamine and maintained at 37° C. in a humidified atmosphere with 5% CO2. […] TEER and capacitance values were continuously monitored over 48 h using a CellZscope device (nanoAnalytics, Münster, Germany). Only PBCEC monolayers with initial TEER values >600Ωcm^2 and capacitance values between 0.45 and 0.6 μF/cm^2 were used for permeability studies (Bornhorst, J., et al., J Biol Chem, 2012. 287(21): p. 17140-51). The barrier integrity was calculated by normalizing the TEER values to the respective start values.

Atp7b^−/− rats = test: Chelator treatment of WD rats: copper in serum, urine and feces (ICP-OES); assay type: in vivo, rat
Protocol: Control Atp7b^+/- and WD Atp7b^-/- rats were fed ad libitum with normal chow (1314; 13.89 mg Cu/kg; Altromin Spezialfutter GmbH, […], Germany) and tap water. All rats were healthy at treatment start and presented no signs of acute liver damage (serum AST <200 U/L and serum bilirubin <0.5 mg/dl). […] Untreated Atp7b^+/- and Atp7b^-/- rats served as controls. Urine and feces were collected at 24-hour intervals for which rats were housed individually in metabolic cages for 4 days. After a two-day resting period off treatment in normal cages and group housing, rats were sacrificed for serum collection.

[6] = in vivo; cited from earlier work
[7] = system: HepG2, EA.hy926, U87MG and SHSY5Y cells; test: Cu-albumin cell toxicity, CellTiter-Glo, all investigated cell lines; assay type: cell-based, human
Protocol: as §2

[8] = system: HepG2, EA.hy926, U87MG and SHSY5Y cells; test: Toxicity of the chelator itself in a copper-free setting, CellTiter-Glo
Protocol: as §2

HepG2 cells [9] = test: Cu-albumin cell toxicity, CellTiter-Glo, HepG2; assay type: cell-based, human; details: HepG2, 750 μM chelator
Protocol: as §2

PBCEC monolayers [10] = test: Copper in the basolateral compartment of the Transwell PBCEC model (ICP-MS/MS); assay type: cell-based, porcine; details: 250 μM copper and 83.3 μM albumin, 250 μM chelator, after 48 h
Excerpt: as §3

[11] = system: tight junction protein claudin-5; test: Immunocytochemistry staining of claudin-5 in PBCEC monolayers; assay type: cell-based, porcine; details: 250 μM copper and 83.3 μM albumin, 250 μM chelator
Protocol: Total copper was determined by ICP-MS/MS as previously described (Kopp, J. F., et al., J Trace Elem Med Biol, 2019. 54: p. 221-225). For the immunocytochemical staining of tight junction proteins, confluent PBCECs cultivated on Transwell® membrane inserts were processed as previously described ([…]., et al., Archives of Toxicology 2018. 92(2): p. 823-832). Briefly, PBCECs were fixed with formaldehyde and permeabilized using Triton X-100. After blocking of unspecific binding sites by albumin, the cells were incubated with the either anti-claudin 5 or anti-ZO-1 antibody (Zytomed Systems GmbH, Berlin, Germany). Following a second blocking step, the cells were treated with an Alexa Fluor® 488 conjugated secondary antibody (Invitrogen, Molecular Probes Inc., Eugene, USA). Hoechst 33258 (Merck, Darmstadt, Germany) was used to stain cell nuclei. Subsequently, membranes were cut out of the inserts and mounted in Aqua Poly/Mount (Polysciences Inc., Washington, USA). After a solidification period of 24 hours, the samples were evaluated using a DM6 B fluorescence microscope by Leica Microsystems CMS GmbH (Wetzlar, Germany) in combination with the Leica Application Suite X.

[12] = system: HepG2, EA.hy926, U87MG and SHSY5Y cells; details: 750 μM copper, 250 μM albumin, 750 μM chelator
Protocol: 2×10^4 cells were seeded into each well of a 96-well plate and incubated overnight. […] Cell toxicity was either determined by CellTiter-Glo® assay (Promega, Madison, USA) or Trypan blue exclusion test.
Afterwards, cells were trypsinized and counted. Cell viability was determined by Trypan blue exclusion test.

EA.hy926 cells [13] = test: Cellular copper content (ICP-OES), EA.hy926; assay type: cell-based, human; details: EA.hy926; 750 μM copper, 250 μM albumin, 750 μM chelator; vs Cu-albumin alone
Excerpt: as §1

neurologic WD patients = details: cited from earlier work
EA.hy926 and U87MG cells = test: Electron microscopy of mitochondrial structure; assay type: cell-based, human; details: electron micrographs, co-treatment with chelator
Excerpt: Electron microscopy of cells was done as previously described ([…]., et al., Cell Mol Gastroenterol Hepatol, 2018. 7(3): p. 571-596) on a 1200EX electron microscope (JEOL, […], Japan) at 60 kv. Pictures were taken with a […] digital camera (Olympus, Hamburg, Germany) and processed by the iTEM software package (analySIS FIVE, Olympus, Hamburg, Germany).

SHSY5Y cells = test: Cellular copper content (ICP-OES), SHSY5Y; assay type: cell-based, human; details: 750 μM copper, 250 μM albumin, 750 μM chelator, vs Cu-albumin alone
Excerpt: as §1

[14] = unit inferred; read-out: Kd (copper affinity); cited from earlier work

CC(C)(S)[C@@H](N)C(=O)O [DPA, (2S)-2-amino-3-methyl-3-sulfanylbutanoic acid, reference compound]
loss of electron-dense protein complexes at the cell-cell borders (PBCEC monolayers [1]): not protected and not | cellular copper content [2]: in none of the cell lines a significant de-coppering was noted; also recorded: did not change the amount of copper uptake | CellTiterGlo-assessed cell viability / Cu-albumin toxicity (EA.hy926 cells [3]): completely absent | cellular copper content (HepG2 cells [4]): highly similar cellular copper contents | transepithelial electrical resistance (TEER) (PBCEC monolayers [5]; 250 μM copper and 83.3 μM albumin, 250 μM chelator, 48 h): not able to prevent the copper-induced TEER loss; also recorded: reduction of the TEER comparable to Cu-albumin treatment alone | capacitance values (PBCEC monolayers [5]; Cu-albumin treatment in the absence or presence of chelator): unaffected | fecal copper excretion (Atp7b^−/− rats; during treatment): unchanged | urinary copper excretion (Atp7b^−/− rats; during treatment, urine collected over 24 h): significantly increased; also recorded: significant increase | serum copper levels (Atp7b^−/− rats; i.p. once daily for 4 consecutive days (ALXN1840 2.5 mg/kg bw, DPA 100 mg/kg bw), serum at sacrifice after resting period): elevated blood copper was not observed | share of net copper intake found in the urine (Atp7b^−/− rats; upon DPA treatment, total net uptake 3.95 μmol/24 h): 10% | copper found in the urine (Atp7b^−/− rats; upon DPA treatment, unpublished observation): 0.4 μmol/24 h | blood peak after application [6]: 1 to 3 h | CellTiterGlo-assessed cell viability / Cu-albumin toxicity ([7]; 750 μM chelator, 250 μM albumin, copper 250 to 2500 μM, 24 h): much less effective; also recorded: not significantly increased | CellTiterGlo-assessed cell viability / Cu-albumin toxicity ([7]; low dose of chelator (250 μM)): no effect on cell viability | non-toxic concentrations ([8]; copper-free setting): up to 2 mM | CellTiterGlo-assessed cell viability with chelator alone ([8]; without external Cu-albumin addition): not observed | CellTiterGlo-assessed cell viability / Cu-albumin toxicity (HepG2 cells [9]): modest rescuing effect | copper in the basolateral compartment (copper influx) (PBCEC monolayers [10]): could not be avoided | claudin-5 staining pattern / copper-induced gap formation [11]: could not prevent copper-induced gap formation; also recorded: did not prevent copper-induced gap formation | Trypan blue-assessed cell viability / copper-related cell toxicity [12]: could not be avoided | cellular copper content (EA.hy926 cells [13]): tendentiously lower copper content | patients with dramatic symptom worsening (neurologic WD patients; shortly upon treatment onset): 19-52% | neurological worsening (neurologic WD patients; treated patients): frequently occur | Cu-albumin-induced alterations of mitochondrial structure (EA.hy926 and U87MG cells): no/minor effect; also recorded: no positive effect | cellular copper content (SHSY5Y cells): tendentiously lower copper content

[SH-].[SH-].[S]=[Mo]=[S] [TTM, tetrathiomolybdate]
neurological worsening (neurologic WD patients; human, in vivo): hardly reported

N[C@@H](Cc1c[nH]cn1)C(=O)O [histidine]
Kd [14]: ~1 nM
